Assay results from ChEMBL document CHEMBL1201862, “PubChem BioAssay data set” (2004).
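Protocol summary: plate cells (96-well), add compound at 5 concentrations, incubate 48 h, interpolate endpoints linearly. At the GI50, growth is halved.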 Calls of active or inactive are those of the source. Rule as the data show it: active = GI50 up to about 1.1 µM and inactive = higher.

How the values were obtained:
Assay in all cases: growth of human tumour cells (NCI), 48 h
SR = test system: SR
OVCAR-4 = test system: OVCAR-4
K562 = test system: K562
U-251 = test system: U-251
Malme-3M = test system: Malme-3M
OVCAR-8 = test system: OVCAR-8
NCI-H522 = test system: NCI-H522
SK-MEL-2 = test system: SK-MEL-2
EKVX = test system: EKVX
SK-MEL-28 = test system: SK-MEL-28
SK-OV-3 = test system: SK-OV-3
MDA-N = test system: MDA-N
HCT-15 = test system: HCT-15
BT-549 = test system: BT-549
NCI/ADR-RES = test system: NCI/ADR-RES
IGROV-1 = test system: IGROV-1
SN12C = test system: SN12C
SF-539 = test system: SF-539
A549 = test system: A549
T47D = test system: T47D
HCC 2998 = test system: HCC 2998
M14 = test system: M14
DU-145 = test system: DU-145
SF-268 = test system: SF-268
HOP-62 = test system: HOP-62
UACC-257 = test system: UACC-257
UO-31 = test system: UO-31
HL-60 = test system: HL-60
OVCAR-3 = test system: OVCAR-3
RPMI-8226 = test system: RPMI-8226
HCT-116 = test system: HCT-116
TK-10 = test system: TK-10
HOP-92 = test system: HOP-92
MOLT-4 = test system: MOLT-4
MCF7 = test system: MCF7
OVCAR-5 = test system: OVCAR-5
A498 = test system: A498
KM12 = test system: KM12
UACC-62 = test system: UACC-62
CCRF-CEM = test system: CCRF-CEM
RXF 393 = test system: RXF 393
SK-MEL-5 = test system: SK-MEL-5
LOX IMVI = test system: LOX IMVI
SNB-75 = test system: SNB-75
SW-620 = test system: SW-620
MDA-MB-231 = test system: MDA-MB-231
786-0 = test system: 786-0
NCI-H226 = test system: NCI-H226
NCI-H460 = test system: NCI-H460
SF-295 = test system: SF-295
COLO 205 = test system: COLO 205
PC-3 = test system: PC-3
SNB-19 = test system: SNB-19
ACHN = test system: ACHN
Hs-578T = test system: Hs-578T
HT-29 = test system: HT-29
NCI-H23 = test system: NCI-H23
MDA-MB-435 = test system: MDA-MB-435
CAKI-1 = test system: CAKI-1

CN1CN(c2ccccc2)C2(CCN(C(=O)OC(C)(C)C)CC2)C1=O
GI50 (SR): > 100 µM (inactive)
GI50 (OVCAR-4): > 100 µM (inactive)
GI50 (K562): 75.3 µM (inactive)
GI50 (U-251): > 100 µM (inactive)
GI50 (Malme-3M): > 100 µM (inactive)
GI50 (OVCAR-8): > 100 µM (inactive)
GI50 (NCI-H522): > 100 µM (inactive)
GI50 (SK-MEL-2): > 100 µM (inactive)
GI50 (EKVX): > 100 µM (inactive)
GI50 (SK-MEL-28): > 100 µM (inactive)
GI50 (SK-OV-3): > 100 µM (inactive)
GI50 (MDA-N): > 100 µM (inactive)
GI50 (HCT-15): > 100 µM
GI50 (BT-549): > 100 µM (inactive)
GI50 (NCI/ADR-RES): > 100 µM (inactive)
GI50 (IGROV-1): > 100 µM (inactive)
GI50 (SN12C): > 100 µM (inactive)
GI50 (SF-539): > 100 µM (inactive)
GI50 (A549): > 100 µM (inactive)
GI50 (T47D): > 100 µM (inactive)
GI50 (HCC 2998): > 100 µM (inactive)
GI50 (M14): > 100 µM (inactive)
GI50 (DU-145): > 100 µM (inactive)
GI50 (SF-268): > 100 µM (inactive)
GI50 (HOP-62): > 100 µM (inactive)
GI50 (UACC-257): > 100 µM (inactive)
GI50 (UO-31): > 100 µM (inactive)
GI50 (HL-60): > 100 µM (inactive)
GI50 (OVCAR-3): > 100 µM (inactive)
GI50 (RPMI-8226): 98.2 µM (inactive)
GI50 (HCT-116): > 100 µM (inactive)
GI50 (TK-10): > 100 µM (inactive)
GI50 (HOP-92): 32.4 µM (inactive)
GI50 (MOLT-4): > 100 µM (inactive)
GI50 (MCF7): > 100 µM (inactive)
GI50 (OVCAR-5): > 100 µM (inactive)
GI50 (A498): > 100 µM (inactive)
GI50 (KM12): > 100 µM (inactive)
GI50 (UACC-62): > 100 µM (inactive)
GI50 (CCRF-CEM): > 100 µM (inactive)
GI50 (RXF 393): 63.2 µM (inactive)
GI50 (SK-MEL-5): > 100 µM (inactive)
GI50 (LOX IMVI): > 100 µM (inactive)
GI50 (SNB-75): > 100 µM (inactive)
GI50 (SW-620): > 100 µM (inactive)
GI50 (MDA-MB-231): > 100 µM (inactive)
GI50 (786-0): > 100 µM (inactive)
GI50 (NCI-H226): > 100 µM (inactive)
GI50 (NCI-H460): > 100 µM (inactive)
GI50 (SF-295): > 100 µM (inactive)
GI50 (COLO 205): > 100 µM (inactive)
GI50 (PC-3): > 100 µM (inactive)
GI50 (SNB-19): > 100 µM (inactive)
GI50 (ACHN): > 100 µM (inactive)
GI50 (Hs-578T): 57 µM (inactive)
GI50 (HT-29): > 100 µM (inactive)
GI50 (NCI-H23): > 100 µM (inactive)
GI50 (MDA-MB-435): > 100 µM (inactive)
GI50 (CAKI-1): > 100 µM (inactive)

C(=C\c1ccccc1)/COc1ccccc1C(N1CCOCC1)n1nc2ccccc2n1 (stereo not drawn)
GI50 (SR): 1.07 µM (active)
GI50 (OVCAR-4): 12.2 µM (inactive)
GI50 (K562): 1.19 µM (inactive)
GI50 (U-251): 3.08 µM (inactive)
GI50 (Malme-3M): 2.99 µM (inactive)
GI50 (OVCAR-8): 3.5 µM (inactive)
GI50 (NCI-H522): 22 µM (inactive)
GI50 (SK-MEL-2): 7.23 µM (inactive)
GI50 (EKVX): 21.2 µM (inactive)
GI50 (SK-MEL-28): 10.7 µM (inactive)
GI50 (SK-OV-3): 32.4 µM (inactive)
GI50 (MDA-N): 0.621 µM (active)
GI50 (HCT-15): 1.82 µM
GI50 (BT-549): 7.55 µM (inactive)
GI50 (NCI/ADR-RES): 3.69 µM (inactive)
GI50 (IGROV-1): 7.98 µM (inactive)
GI50 (SN12C): 5.6 µM (inactive)
GI50 (SF-539): 2.59 µM (inactive)
GI50 (A549): 41 µM (inactive)
GI50 (T47D): 10.7 µM (inactive)
GI50 (HCC 2998): 17.5 µM (inactive)
GI50 (M14): 2.58 µM (inactive)
GI50 (DU-145): 5.85 µM (inactive)
GI50 (SF-268): 5.71 µM (inactive)
GI50 (HOP-62): 4.71 µM (inactive)
GI50 (UACC-257): 5.51 µM (inactive)
GI50 (UO-31): 9.86 µM (inactive)
GI50 (HL-60): 0.352 µM (active)
GI50 (OVCAR-3): 2.18 µM (inactive)
GI50 (RPMI-8226): 2.92 µM (inactive)
GI50 (HCT-116): 5.31 µM (inactive)
GI50 (TK-10): 6.98 µM (inactive)
GI50 (HOP-92): 5.15 µM (inactive)
GI50 (MOLT-4): 2.3 µM (inactive)
GI50 (MCF7): 1.4 µM (inactive)
GI50 (OVCAR-5): 14.1 µM (inactive)
GI50 (A498): 38.1 µM (inactive)
GI50 (KM12): 5.26 µM (inactive)
GI50 (UACC-62): 3 µM (inactive)
GI50 (CCRF-CEM): 1.88 µM (inactive)
GI50 (RXF 393): 3.94 µM (inactive)
GI50 (SK-MEL-5): 3.33 µM (inactive)
GI50 (LOX IMVI): 2.9 µM (inactive)
GI50 (SNB-75): 4.8 µM (inactive)
GI50 (SW-620): 4.28 µM (inactive)
GI50 (MDA-MB-231): 4.73 µM (inactive)
GI50 (786-0): 3.29 µM (inactive)
GI50 (NCI-H226): 7.28 µM (inactive)
GI50 (NCI-H460): 15.4 µM (inactive)
GI50 (SF-295): 8.95 µM (inactive)
GI50 (COLO 205): 19.9 µM (inactive)
GI50 (PC-3): 2.59 µM (inactive)
GI50 (SNB-19): 19.2 µM (inactive)
GI50 (ACHN): 7.98 µM (inactive)
GI50 (Hs-578T): 7.24 µM (inactive)
GI50 (HT-29): 3 µM (inactive)
GI50 (NCI-H23): 5.35 µM (inactive)
GI50 (MDA-MB-435): 0.365 µM (active)
GI50 (CAKI-1): 15.2 µM (inactive)
